Assay: Penetration of drug from SFA-based carrier into excised human toe nails
Type: in vitro ADME
Details: for depth below the nail surface at which significant tacrolimus concentrations were found: 1 mg/mL tacrolimus in F6H8 with 3.8 wt.-% ethanol, 1,000 min, 40 μm slices
Description: Tacrolimus was dissolved in a liquid carrier comprising F6H8 and 3.8 wt.-% ethanol to obtain a clear solution having a tacrolimus concentration of 1 mg/mL. The composition was used to evaluate the penetration of tacrolimus from an SFA-based carrier into human nails.
Excised human toe nails were obtained and washed in isotonic sodium chloride solution. For each nail, a filter membrane of 16 mm in diameter (2.01 cm^2) was loaded with 30 μL of the test solution, placed onto the nail and incubated for 1,000 min. At the end of the period, the remaining amount of the test solution in the filter and on the nail was collected. From each nail, punch biopsies of 5 mm in diameter (0.1963 cm^2) were obtained. The punch biopsies were frozen and microtomised at −40° C. into 20 horizontal slices of 40 μm thickness. Each slice was extracted and analysed for tacrolimus by HPLC-MS, as were the collected amounts of non-permeated formulation.
The experiment of Example 1 was repeated, except that a solution of ciclopiroxolamine was used instead of a tacrolimus solution. The test composition contained 1% (w/v) of ciclopiroxolamine dissolved in a vehicle of F6H8 and ethanol (85/15 wt.-%).

fraction of the administered amount of ciclopiroxolamine found in the nail matrix (1% (w/v) ciclopiroxolamine in F6H8 and ethanol (85/15 wt.-%), 1,000 min incubation) | depth below the nail surface at which significant tacrolimus concentrations were found | depth below the nail surface at which significant tacrolimus concentrations were found (listed as Tacrolimus) | total amount of tacrolimus found in the nails, relative to the administered dose (30 μL of 1 mg/mL tacrolimus solution in F6H8 with 3.8 wt.-% ethanol, 1,000 min incubation, HPLC-MS) | SMILES | depth distribution of ciclopiroxolamine in the nail matrix (1% (w/v) ciclopiroxolamine in F6H8 and ethanol (85/15 wt.-%), 1,000 min)
49.5% |  |  |  | Cc1cc(C2CCCCC2)n(O)c(=O)c1 [ciclopiroxolamine] | Significant amounts of drug were found throughout the depth of the nail matrix
 | 400 μm | ≥ 400 μm | approx. 9% | C=CC[C@@H]1/C=C(\C)C[C@H](C)C[C@H](OC)[C@H]2O[C@@](O)(C(=O)C(=O)N3CCCC[C@H]3C(=O)O[C@H](/C(C)=C/[C@@H]3CC[C@@H](O)[C@H](OC)C3)[C@H](C)[C@@H](O)CC1=O)[C@H](C)C[C@@H]2OC [tacrolimus] | 
